Experimental data from article PMC4876444, “Two-Photon Enzymatic Probes Visualizing Sub-cellular/Deep-brain Caspase Activities in Neurodegenerative Models” (Scientific Reports, 2016).

Tests used:
[1] = tested on: NIH/3T3, BV2 and HeLa cells; test: XTT cytotoxicity assay; assay type: cell-based, mouse, human; details: XTT assay, 12, 30, 60, 120 μM, 24 h
Protocol: Supplementary Figure 4. Cytotoxicity of two-photon enzymatic probes (12, 30, 60, 120 μM) in mammalian cells (NIH/3T3, BV2 and HeLa) after incubation for 24 h, as determined by XTT assay. […]
Detection of caspase activities in mammalian cells and tissues
Cell culture. The mouse embryonic fibroblast cell line (NIH/3T3), mouse microglial cell line (BV2) and human epithelial carcinoma cell line (HeLa) used in our experiments were cultured in Dulbecco’s Modified Eagle's Medium (DMEM) supplemented with 10% (for NIH/3T3 and HeLa) or 5% (for BV2) fetal bovine serum (FBS), 100.0 mg/L streptomycin and 100 IU/mL penicillin in a humidified atmosphere of 5% CO2 at 37 °C.
XTT assay. The cytotoxicity of our probes was determined by using the XTT colorimetric cell proliferation kit (Roche) following manufacturer’s guidelines. Briefly, NIH/3T3, BV2 and HeLa cells were seeded in 20~30% confluency (since they will reach >50% confluency within 24 h) into 96-well plates and incubated overnight before the addition of probes with concentrations of 12 μM, 30 μM, 60 μM and 120 μM, respectively. Probes were applied from DMSO stocks whereby DMSO never exceeded 1% in the final solution. The same volume of DMSO was used as a negative control; and the same volume of STS (200 nM) was used as a positive control. After a total treatment time of 24 h, proliferation was assayed using the XTT assay (Supplementary Fig. 4). […]

[2] = tested on: caspase-3/-7-like activities in brain slices; test: TPFM of caspase-3 activation in brain slices of ethanol-intoxicated mouse; details: 200-μm-thick brain sections of ethanol-intoxicated 7-day-old C57BL/6 mice, probe 120 μM, 3 h, 37 °C, Z-axis scanning TPFM
Protocol: Figure 4 Imaging endogenous caspase activities in deep tissues. (a) TPFM of caspase-3 activation in brain slices of ethanol-intoxicated 7-day-old C57BL/6 mouse using C3RA (120 μM, 3 h). Top: 3D images of the mouse brain slice taken along the Z-axis from 0 to 160 μm at 10x magnification. Bottom: images taken at a depth of 120 μm at 40x magnification. […]: control slices (saline-treated); panels 2/6/4/8: treated with caspase-3/7 inhibitor I (200 μM, 3 h). Scale bar = 50 μm. (b) RFU readings extracted from (a) (FTPFM, blue bars) versus those from in vitro enzymatic assays using lysates from the same brain slices (RFU, orange bars). The signal from saline controls was set as “0” and that from ethanol-treated samples was set as “1” in RFU quantification. Due to the base-level active caspase-3 in the saline controls, negative readings were shown with inhibitor-treated samples. (c) WB analysis of caspase-3/-1/-8 activation in lysates of the same mouse brain slices shown in (a). (d) Normalized RFU readings from in vitro enzymatic assays using brain lysates (300 μg) of saline/ethanol treated mice after incubation with C1RB/C3RA/C8RA (6 μM) for 1 h at 37 °C.
All two-photon images were taken on a Leica TCS SP5X Confocal Microscope System. […]

[3] = not given; remark: listed apart in the source

Q: With CC(=O)N[C@@H](CC(=O)O)C(=O)N[C@@H](CCC(=O)O)C(=O)N[C@H](C(=O)N[C@@H](CC(=O)O)C(=O)Nc1ccc2cc(C(C)=O)ccc2c1)C(C)C [C3RA, Ac-DEVD-AAN] as the compound, how does the cytotoxicity [1] read?
A: minimally cytotoxic

Q: And the “tissue depth of detection of caspase-3/-7-like activities” value [2]?
A: ≤ 160 μm

Q: What about the λex (absorption/excitation maximum) of the same compound?
A: 316 nm

Q: And the δΦ (two-photon action cross-section) [3]?
A: 2.9 GM
